US20250144067A1, “PERSONALIZED STARVATION THERAPY FOR CANCER” (Faeth Therapeutics, Inc., priority 2021, published 2025)
Counter-ions that a name gives are not always drawn. Like-named read-outs stand apart in the source and are kept apart here.

What was measured:
[1] = tested on: NCI-H292 lung cancer cells; test: FDA drug screening, complete media vs cholesterol-free media without statin (TABLE 1); format: cell-based, human
[2] = tested on: NCI-H292 lung cancer cells; test: FDA drug screening, complete media vs cholesterol-free media with simvastatin (TABLE 2); format: cell-based, human
[3] = NCI-H292 cells, cholesterol-free media without statin
[4] = complete vs cholesterol-free media, greater than 0 enhanced anti-cancer activity, about 0 neutral, below 0 antagonists
[5] = NCI-H292 cells, FDA library drug in cholesterol-free media with simvastatin 0.04 μM
[6] = NCI-H292 cells, FDA library drug in complete media
[7] = complete media vs cholesterol-free media + simvastatin (0.04 μM), >0 enhanced anti-cancer activity, about 0 neutral, <0 antagonist
[8] = Complete minus Cholesterol-free, […]
[9] = Complete minus Cholesterol-free, greater than 0 enhanced anti-cancer activity, about 0 neutral, below 0 antagonist
[10] = NCI-H292 cells, FDA drug library screen, cholesterol-free media without statin
[11] = NCI-H292 cells, FDA drug library screen, complete media
[12] = NCI-H292 cells, cholesterol-free media with simvastatin 0.04 μM, FDA drug library screen (TABLE 2)
[13] = NCI-H292 cells, complete media, FDA drug library screen (TABLE 2)
[14] = complete media minus cholesterol-free media + simvastatin (0.04 μM), >0 enhanced anti-cancer activity, about 0 neutral, <0 antagonist
[15] = NCI-H292 cells, FDA drug library screen, cholesterol-free media with simvastatin 0.04 μM
[16] = complete media vs cholesterol-free media + simvastatin (0.04 μM), […]
[17] = complete media minus cholesterol-free media + simvastatin, >0 enhanced anti-cancer activity, about 0 neutral, <0 antagonist
[18] = NCI-H292 cells, cholesterol-free media without statin, FDA drug library screen
[19] = NCI-H292 cells, complete media, FDA drug library screen
[20] = complete vs cholesterol-free media, >0 enhanced anti-cancer activity, about 0 neutral, <0 antagonist
[21] = Complete minus Cholesterol-free, >0 enhanced anti-cancer activity, about 0 neutral, <0 antagonist
[22] = NCI-H292 cells, cholesterol-free media with simvastatin 0.04 μM, cell growth value in FDA drug screen
[23] = NCI-H292 cells, complete media, cell growth value in FDA drug screen
[24] = Complete minus Cholesterol-free, greater than 0 enhanced anti-cancer activity, about 0 neutral, below 0 antagonists
[25] = NCI-H292 cells in cholesterol-free media without statin
[26] = NCI-H292 cells in complete media

Compound: C#CC1(O)CC[C@H]2[C@@H]3CCC4=CC(=O)CC[C@@H]4[C@H]3CC[C@@]21CC (stereo partly shown) [Norgestrel]
- Cholesterol-free [1, 3]: 1.349
- Complete ([1]; NCI-H292 cells, complete media): 1.022
- Difference [1, 4]: −0.33
- Cholesterol-free media + simvastatin (0.04 μM) [2, 5]: 1.456
- Complete Media [2, 6]: 1.004
- Difference [2, 7]: −0.45

Compound: Heparin (Lithium salt)
- Difference [1, 8]: −0.22
- Cholesterol-free [1, 3]: 1.174
- Complete ([1]; NCI-H292 cells, complete media): 0.9566
- Complete Media ([2]; NCI-H292 cells, complete media, […]): 1.136
- Difference ([2]; complete media minus cholesterol-free media + simvastatin, […]): 0.08

Compound: Lenvatinib (mesylate)
- Difference [1, 9]: −0.10
- Cholesterol-free [1, 10]: 0.845
- Complete [1, 11]: 0.7401
- Cholesterol-free media + simvastatin (0.04 μM) [2, 12]: 1.17
- Complete Media [2, 13]: 1.154
- Difference [2, 14]: −0.02

Compound: C#C[C@]1(OC(C)=O)CC[C@H]2[C@@H]3CCC4=CC(=O)CC[C@@H]4[C@H]3CC[C@@]21C [Norethindrone acetate]
- Difference [1, 9]: −0.12
- Cholesterol-free [1, 10]: 1.033
- Complete [1, 11]: 0.9116
- Cholesterol-free media + simvastatin (0.04 μM) [2, 5]: 1.695
- Complete Media [2, 6]: 0.9691
- Difference [2, 7]: −0.73

Compound: C[n+]1ccccc1C=NO.[I-] [Pralidoxime (iodide)]
- Difference [1, 8]: −0.07
- Cholesterol-free [1, 10]: 1.049
- Complete [1, 11]: 0.9757
- Cholesterol-free media + simvastatin (0.04 μM) [2, 15]: 0.9948
- Complete Media [2, 11]: 0.8823
- Difference [2, 16]: −0.11

Compound: CN1CC[C@@H](NC(=O)Nc2ccc(C#N)cc2)C[C@@H]1c1nc2ccccc2[nH]1 [Glasdegib]
- Cholesterol-free [1, 3]: 1.398
- Complete ([1]; NCI-H292 cells, complete media): 0.9821
- Difference [1, 4]: −0.42
- Cholesterol-free media + simvastatin (0.04 μM) [2, 15]: 0.7992
- Complete Media [2, 11]: 0.9809
- Difference [2, 17]: 0.18

Compound: CCOC(=O)C1=C(COCCN)NC(C)=C(C(=O)OC)C1c1ccccc1Cl (stereo not shown) [Amlodipine]
- Cholesterol-free [1, 18]: 0.797
- Complete [1, 19]: 1.434
- Difference [1, 20]: 0.64
- Cholesterol-free media + simvastatin (0.04 μM) [2, 15]: 1.424
- Complete Media [2, 11]: 1.705
- Difference [2, 17]: 0.28

Compound: CC1=NN(c2ccc(C)c(C)c2)C(=O)/C1=N\Nc1cccc(-c2cccc(C(=O)O)c2)c1O [Eltrombopag]
- Difference [1, 21]: −0.30
- Cholesterol-free [1, 3]: 1.47
- Cholesterol-free media + simvastatin (0.04 μM) [2, 15]: 1.011
- Complete Media [2, 11]: 0.868
- Difference [2, 7]: −0.14

Compound: COc1cc2c(cc1OC)[C@@H](Cc1cc(OC)c(OC)c(OC)c1)[N+](C)(CCCOC(=O)CC/C=C/CCC(=O)OCCC[N+]1(C)CCc3cc(OC)c(OC)cc3[C@H]1Cc1cc(OC)c(OC)c(OC)c1)CC2.[Cl-].[Cl-] (stereo partly shown) [Mivacurium (dichloride)]
- Difference [1, 8]: −0.21
- Cholesterol-free [1, 3]: 0.9248
- Complete ([1]; NCI-H292 cells, complete media): 0.7178
- Cholesterol-free media + simvastatin (0.04 μM) [2, 5]: 1.752
- Complete Media [2, 6]: 1.463
- Difference [2, 16]: −0.29

Compound: CCCC(=O)Nc1ncnc2c1ncn2[C@@H]1O[C@@H]2COP(=O)(O)O[C@H]2[C@H]1OC(=O)CCC [Bucladesine (calcium)]
- Difference [1, 9]: −0.13
- Cholesterol-free [1, 10]: 0.8949
- Complete [1, 11]: 0.7629
- Cholesterol-free media + simvastatin (0.04 μM) [2, 12]: 0.8302
- Complete Media [2, 13]: 0.804
- Difference [2, 14]: −0.03

Compound: COc1ccccc1OCC(O)CN1CCN(CC(=O)Nc2c(C)cccc2C)CC1 (stereo not shown) [Ranolazine (dihydrochloride)]
- Difference [1, 21]: −0.23
- Cholesterol-free [1, 3]: 1.148
- Complete ([1]; NCI-H292 cells, complete media): 0.9194
- Cholesterol-free media + simvastatin (0.04 μM) [2, 12]: 0.9671
- Complete Media [2, 13]: 0.9017
- Difference [2, 14]: −0.07

Compound: CN(C)C/C=C/C(=O)Nc1cc2c(Nc3ccc(F)c(Cl)c3)ncnc2cc1O[C@H]1CCOC1 [Afatinib]
- Difference [1, 21]: 0.00
- Cholesterol-free [1, 18]: 0.02665
- Complete [1, 19]: 0.0309
- Cholesterol-free media + simvastatin (0.04 μM) [2, 22]: 0.1756
- Complete Media [2, 23]: 0.2197
- Difference [2, 17]: 0.04

Compound: O=[N+]([O-])C(Br)(CO)CO [Bronopol]
- Difference [1, 24]: −0.52
- Cholesterol-free [1, 25]: 1.461
- Complete [1, 26]: 0.9389
- Cholesterol-free media + simvastatin (0.04 μM) [2, 22]: 0.8221
- Complete Media [2, 23]: 0.9082
- Difference [2, 17]: 0.09

Compound: CN1C[C@H](CNC(=O)OCc2ccccc2)C[C@@H]2c3cccc4c3c(cn4C)C[C@H]21 [Metergoline]
- Cholesterol-free [1, 3]: 1.165
- Complete ([1]; NCI-H292 cells, complete media): 0.7326
- Difference [1, 4]: −0.43
- Cholesterol-free media + simvastatin (0.04 μM) [2, 22]: 0.7892
- Complete Media [2, 23]: 0.8668
- Difference [2, 17]: 0.08

Compound: C[N+](C)(C)CCCCCCCCCC[N+](C)(C)C.[Br-].[Br-] [Decamethonium (Bromide)]
- Cholesterol-free [1]: 1.121
- Complete [1]: 0.9062
- Difference [1]: −0.21
- Cholesterol-free media + simvastatin (0.04 μM) [2]: 1.129
- Complete Media [2]: 0.9457
- Difference [2]: −0.18

Compound: CC(C)(Oc1ccc(C2CC2(Cl)Cl)cc1)C(=O)O (stereo not shown) [Ciprofibrate]
- Difference [1, 9]: −0.11
- Cholesterol-free [1, 10]: 1.09
- Complete [1, 11]: 0.9746
- Cholesterol-free media + simvastatin (0.04 μM) [2, 5]: 1.569
- Complete Media [2, 6]: 1.161
- Difference [2, 7]: −0.41

Compound: Nc1nc(=O)n([C@@H]2CS[C@H](CO)O2)cc1F [Emtricitabine]
- Cholesterol-free [1, 18]: 0.9457
- Complete [1, 19]: 1.235
- Difference [1, 20]: 0.29
- Cholesterol-free media + simvastatin (0.04 μM) [2, 22]: 1.347
- Complete Media [2, 23]: 1.442
- Difference [2, 17]: 0.09

Compound: Nc1ccc(C(=O)O)c(O)c1 [4-Aminosalicylic acid]
- Difference [1, 8]: −0.16
- Cholesterol-free [1, 10]: 1.094
- Complete [1, 11]: 0.9375
- Cholesterol-free media + simvastatin (0.04 μM) [2, 15]: 1.199
- Complete Media [2, 11]: 1.112
- Difference [2, 16]: −0.09

Compound: CC(=O)OCC(=O)[C@@]12OC3(CCCC3)O[C@@H]1C[C@H]1[C@@H]3CCC4=CC(=O)C=C[C@]4(C)[C@@]3(F)[C@@H](O)C[C@@]12C [Amcinonide]
- Difference [1, 9]: −0.16
- Cholesterol-free [1, 10]: 1.081
- Complete [1, 11]: 0.9188
- Cholesterol-free media + simvastatin (0.04 μM) [2, 15]: 0.5029
- Complete Media [2, 11]: 0.766
- Difference [2, 17]: 0.26

Compound: CCN(CC)C(=O)c1cccnc1 [Nikethamide]
- Difference [1, 9]: −0.18
- Cholesterol-free [1, 10]: 1.071
- Complete [1, 11]: 0.8953
- Cholesterol-free media + simvastatin (0.04 μM) [2, 15]: −0.004932
- Complete Media [2, 11]: 1.43
- Difference [2, 17]: 1.44

Compound: CN1CCC[C@@H]1Cc1c[nH]c2ccc(CCS(=O)(=O)c3ccccc3)cc12 [Eletriptan (hydrobromide)]
- Cholesterol-free [1, 3]: 1.406
- Complete ([1]; NCI-H292 cells, complete media): 1.08
- Difference [1, 4]: −0.33
- Cholesterol-free media + simvastatin (0.04 μM) [2, 5]: 1.33
- Complete Media [2, 6]: 0.9128
- Difference [2, 7]: −0.42

Compound: COCC(=O)Nc1c(I)c(C(=O)NCC(O)CO)c(I)c(C(=O)N(C)CC(O)CO)c1I (stereo not shown) [Iopromide]
- Cholesterol-free [1, 18]: 0.9462
- Complete [1, 19]: 1.578
- Difference [1, 20]: 0.63
- Cholesterol-free media + simvastatin (0.04 μM) [2, 12]: 0.8199
- Complete Media [2, 13]: 0.7955
- Difference [2, 14]: −0.02

Compound: C[C@H](Oc1cc(-c2cnn(C3CCNCC3)c2)cnc1N)c1c(Cl)ccc(F)c1Cl [(S)-Crizotinib]
- Difference [1, 8]: 0.02
- Cholesterol-free [1, 18]: 1.253
- Complete [1, 19]: 1.275
- Cholesterol-free media + simvastatin (0.04 μM) [2, 15]: 1.094
- Complete Media [2, 11]: 0.9518
- Difference [2, 16]: −0.14

Compound: CO[C@@]1(NC(=O)Cc2cccs2)C(=O)N2C(C(=O)O)=C(COC(N)=O)CS[C@@H]21 [Cefoxitin]
- Difference [1, 9]: −0.13
- Cholesterol-free [1, 10]: 0.8861
- Complete [1, 11]: 0.755
- Cholesterol-free media + simvastatin (0.04 μM) [2, 5]: 1.841
- Complete Media [2, 6]: 1.5
- Difference [2, 7]: −0.34

Compound: CC(C)N(CCC(C(N)=O)(c1ccccc1)c1ccccn1)C(C)C (stereo not shown) [Disopyramide]
- Difference [1, 9]: −0.15
- Cholesterol-free [1, 10]: 1.106
- Complete [1, 11]: 0.9575
- Cholesterol-free media + simvastatin (0.04 μM) [2, 12]: 1.301
- Complete Media [2, 13]: 1.257
- Difference [2, 14]: −0.04

Compound: Cc1nc(C)c(C)nc1C [Ligustrazine (hydrochloride)]
- Difference [1, 21]: −0.06
- Cholesterol-free [1, 18]: 1.047
- Complete [1, 19]: 0.9829
- Cholesterol-free media + simvastatin (0.04 μM) ([2]; NCI-H292 cells, drug in cholesterol-free media with simvastatin 0.04 μM): 1.229
- Complete Media ([2]; NCI-H292 cells, drug in complete media): 1.02
- Difference [2, 7]: −0.21

Compound: C=C1c2cccc(O)c2C(=O)C2=C(O)[C@]3(O)C(=O)C(C(N)=O)=C(O)[C@@H](N(C)C)[C@@H]3[C@@H](O)[C@H]12 [Methacycline (hydrochloride)]
- Difference [1, 24]: −0.57
- Cholesterol-free [1, 25]: 1.479
- Complete [1, 26]: 0.9047
- Cholesterol-free media + simvastatin (0.04 μM) [2, 5]: 1.315
- Complete Media [2, 6]: 0.995
- Difference [2, 7]: −0.32

Compound: Sodium tauroglycocholate
- Difference [1, 8]: −0.95
- Cholesterol-free [1, 25]: 1.712
- Complete [1, 26]: 0.7634
- Cholesterol-free media + simvastatin (0.04 μM) [2, 5]: 1.256
- Complete Media [2, 6]: 0.9729
- Difference [2, 16]: −0.28
